Test results reported in patent US10632117B2, “GSK3B and uses thereof in the diagnostic and treatment of hypopigmentation disorders” (INSERM (INSTITUT NATIONAL DE LA SANTE ET DE LA RECHERCHE …, priority 2014, dated 2020).

Columns and labels:
Type in all cases: cell-based, human
[1] = system: depigmented skin from vitiligo patients; assay: Ex vivo culture of lesional vitiligo skin biopsies, RT-qPCR of melanoblast / pre-melanocyte markers; details: 14 days, SKL2001 40 μM; for mRNA level of early melanoblast marker Brn2 / mRNA level of early melanoblast marker PAX3: CHIR99021 3 μM, LiCl 20 μM
Method: (§1) For vitiligo skin biopsies, after verification of the absence of melanocytes with Wood's lamp, two or three 6 mm biopsies composed of dermis plus epidermis were taken into lesional skin from vitiligo patients (n=9). The biopsies are rapidly put on transwell chamber of 0.4 μm (Becton Dickinson) and kept on semi liquid culture conditions in “Skin long term culture medium” (Biopredic). The skin was maintained at 37° C. in a wet 5% CO2, atmosphere.
(§2) The culture medium supplemented with Forskolin (Sigma Aldrich), LiCl (Sigma Aldrich), CHIR99021 (Calbiochem) or SKL2001 (Calbiochem) was changed […] during 14 days.
(§3) mRNA from melanocytes and keratinocytes was extracted with RNeasy kit (Qiagen). The biopsies are cut and disrupted with tissue ruptor (Qiagen) and the mRNA was extracted with RNeasy kit (Qiagen). cDNA were synthesized from 300 ng to 1 μg of mRNA with the Reverse Transcription System (Promega). Relative quantification of gene expression was measured by real time qPCR with Sybr green reagent (Life technology) on Step one system.
(§4) In order to induce the differentiation of melanocyte stem cells, they pharmacologically activated the WNT pathway in vitiligo skin cultured ex vivo as shown previously. They used two methods to activate the WNT pathway: a WNT agonist (SKL2001) and two GSK3β inhibitors: lithium chloride (LiCl) and a commercial specific inhibitor (CHIR99021). They biopsied 9 vitiligo subjects (6 mm punch) on diverse body locations ([…], 2 on trunk, 2 on leg, 1 on arm and 1 on axilla) and treated the ex vivo culture model during 14 days with a systemic stimulation every other day with the WNT activators.
(§5) They evaluated the activation of WNT pathway by the mRNA level of WNTs (TCF/LEF1 and the melanogenesis pathway by the mRNA level of MITF, DCT, PAX3 and BRn2) within the skin.

WNT pathway = assay: Ex vivo culture of lesional vitiligo skin biopsies with WNT pathway activators, RT-qPCR of WNT family and LEF; details: 14 days, stimulation every other day, CHIR99021 3 μM, LiCl 20 μM, SKL2001 40 μM
Method: as §1, §2, §3, §4, §5

[2] = system: melanocyte stem cells in depigmented skin from vitiligo patients; assay: Ex vivo depigmented vitiligo skin, immunohistostaining for co-expression of DCT and PAX3; details: 14 days, every other day, SKL2001 40 μM, CHIR99021 3 μM, LiCl 20 μM, immunofluorescence
Method: Depigmented skin from vitiligo patients [A (control culture medium)] were stimulated in ex vivo culture with WNT agonist SKL2001 (40 μM) (B), GSK3β inhibitor CHIR99021 (3 μM) (C) or GSK3β inhibitor LiCl 20 μM (D) every other day to activate the WNT pathway. After 14 days, the skin response was analyzed by immunohistostaining with pre-melanocytes markers: a DCT staining (green) and PAX3 staining (red).
as §1, §2
Biopsies were fixed with 4% formol, embedded in paraffin, cut with microtome of […] sections and fixed on superfrost plus slides (Thermoscientific). […]

NHM (melanocytes) = assay: Oxidative stress (H2O2) in NHM: qPCR of LEF and WNT family, TCF/LEF luciferase reporter; details: 24 hours, 25 to 100 μM H2O2
Method: (§6) NHM (A) and NHK (B) and whole skin in ex vivo culture (C) were stimulated 24 hours with 25 to 100 μM of H2O2. After mRNA extraction, a reverse transcription was performed and the relative gene expression of LEF1 was analyzed with qPCR.
(§7) (A) NHM, (B) NHK and (C) whole skin in ex vivo culture were stimulated 24 hours with 25 to 100 μM of H2O2. After mRNA extraction, a reverse transcription was performed and the relative gene expression of WNT family was analyzed with qPCR.
(§8) NHMs and NHKs are obtained from the foreskin of phototype IV children as described previously. Briefly, epidermal cells are obtained by overnight digestion of the skin in a dispase solution (Roche) at 4° C. followed by the digestion of the epidermis in a trypsin/EDTA solution during 20 minutes at 37° C. […]
(§9) mRNA from melanocytes and keratinocytes was extracted with RNeasy kit (Qiagen). […] Relative quantification of gene expression was measured by real time qPCR with Sybr green reagent (Life technology) on Step one system.
(§10) NHK and NHM were co-infected with the lentivirus TCF/LEF Reporter Luciferase and Cignal Lenti Reporter Control Renilla (Qiagen) and the infected cells were selected with Puromycin for 14 days. NHM and NHK selected were stimulated 24 h with SKL2001 and H2O2 and the TCF/LEF activity was measured with Dual Luciferase Reporter Assay System (Promega).

NHK (keratinocytes) = assay: Oxidative stress (H2O2) in NHK: qPCR of LEF and WNT family, TCF/LEF luciferase reporter; details: 24 hours, 25 to 100 μM H2O2
Method: as §6, §7, §8, §9, §10

[3] = system: whole skin in ex vivo culture; assay: Oxidative stress (H2O2) in whole skin in ex vivo culture: qPCR of LEF and WNT family; details: skin biopsies ex vivo, 24 hours, 25 to 100 μM H2O2
Method: as §6, §7
Skin from abdominoplasty surgery was used to the development of the ex vivo skin culture model. The subcutaneous fat was removed and biopsies of 6 mm were done in the skin composed of dermis and epidermis.
as §3

expression of LEF (NHM (melanocytes))	expression of the majority of WNT (NHM (melanocytes))	expression of LEF (NHK (keratinocytes))	expression of the majority of WNT (NHK (keratinocytes))	Structure (SMILES)	mRNA level of early melanoblast marker Brn2 [1]	mRNA level of early melanoblast marker PAX3 [1]	relative expression of LEF mRNA (WNT pathway)	relative expression of WNT family mRNA (WNT pathway)	co-expression of DCT and PAX3 (differentiation of melanocyte stem cells into pre-melanocytes) [2]	expression of LEF [3]	expression of most of the WNT family [3]	level of MITF mRNA [1]
–	–	–	–	Cc1c[nH]c(-c2cnc(NCCNc3ccc(C#N)cn3)nc2-c2ccc(Cl)cc2Cl)n1 [CHIR99021]	up-regulated	up-regulated	increase	increase	melanoblast in differentiation within the dermis	–	–	–
decreased	decreased	decreased	decreased	OO [H2O2]	–	–	–	–	–	decrease	decrease	–
–	–	–	–	O=C(NCCCn1ccnc1)c1cc(-c2ccco2)on1 [SKL2001]	up-regulated	up-regulated	increase	increase	melanoblast in differentiation within the dermis	–	–	increased
